Assay results reported in US4900730A, “Preparation which promotes the absorption of peptides” (priority 1981, dated 1990).

Assay: Rectal circulation: Cephalothin disappeared by absorption (Examples 10-14, 16-18)
Protocol: The experiments were conducted similarly as in Example 1. […] Each sample was diluted and the quantity of Cephalothin disappeared was determined by UV-spectrophotometer of high-speed liquid chromatography.

[1] = Table 11, promoter 0.5% W/V, Example 10 repeated, four-fold tonic
[2] = Table 11, promoter 0.5% W/V, Example 10 repeated, isotonic
[3] = Table 4, promoter 0.1% W/V, 0.1% W/V Cephalothin.Na, isotonic, after one hour
[4] = Table 4, promoter 0.1% W/V, 0.1% W/V Cephalothin.Na, four-fold tonic, after one hour

## NC(CS(=O)(=O)O)C(=O)O (racemic) [DL-cysteic acid]
rat, in vivo
  Cephalothin disappeared by absorption, Osmotic pressure X 1: 5.3 percents
  Cephalothin disappeared by absorption, Osmotic pressure X 2: 9.0 percents
  Cephalothin disappeared by absorption, Osmotic pressure X 4: 14.6 percents

## O=C(O)[C@@H]1C[C@@H](O)CN1 (racemic) [DL-hydroxyproline]
[1]
  Cephalothin disappeared by absorption, Osmotic pressure X 4: 12.9 percents
[2]
  Cephalothin disappeared by absorption, Osmotic pressure X 1: 5.5 percents

## NC(Cc1ccccc1)C(=O)O (racemic) [DL-phenylalanine]
rat, in vivo
  Cephalothin disappeared by absorption, Osmotic pressure X 1: 6.6 percents
  Cephalothin disappeared by absorption, Osmotic pressure X 4: 15.6 percents

## NC(C(=O)O)c1ccccc1 (racemic) [DL-phenylglycine]
rat, in vivo
  Cephalothin disappeared by absorption, Osmotic pressure X 4: 29.3 percents

## CCC(NC(=O)CN)C(=O)O (racemic) [Glycyl-DL-aminobutyric acid, glycyl-DL-aminobutyric acid]
rat, in vivo
  Cephalothin disappeared by absorption, Osmotic pressure X 1: 11.0 percents
  Cephalothin disappeared by absorption, Osmotic pressure X 4: 30.4 percents

## NCC(=O)NC(CC(=O)O)C(=O)O (racemic) [Glycyl-DL-aspartic acid, glycyl-DL-aspartic acid]
rat, in vivo
  Cephalothin disappeared by absorption, Osmotic pressure X 1: 8.6 percents
  Cephalothin disappeared by absorption, Osmotic pressure X 4: 19.0 percents

## COC(=O)C(N)CCC(=O)O (racemic) [α-methyl DL-glutamate]
Table 11, promoter 0.1% W/V, Example 10 repeated, four-fold tonic
  Cephalothin disappeared by absorption, Osmotic pressure X 4: 21.4 percents
Table 11, promoter 0.1% W/V, Example 10 repeated, isotonic
  Cephalothin disappeared by absorption, Osmotic pressure X 1: 11.9 percents

## O=C(O)c1c(O)cccc1O [2,6-dihydroxybenzoic acid]
rat, in vivo
  Cephalothin.Na disappeared by absorption, Osmotic pressure X 1: 9.5 percents
  Cephalothin.Na disappeared by absorption, Osmotic pressure X 2: 15.3 percents
  Cephalothin.Na disappeared by absorption, Osmotic pressure X 4: 22.9 percents

## CC(=O)CC(=O)Cc1ccccc1 [3-Phenylacetyl acetone, 3-phenylacetyl acetone]
Table 10, diketo-compounds, Example 10 repeated, four-fold tonic
  Cephalothin disappeared by absorption, Osmotic pressure X 4: 22.2 percents
Table 10, diketo-compounds, Example 10 repeated, isotonic
  Cephalothin disappeared by absorption, Osmotic pressure X 1: 9.1 percents
Table 10, diketo-compounds, Example 10 repeated, two-fold tonic
  Cephalothin disappeared by absorption, Osmotic pressure X 2: 16.3 percents

## O=C(O)CN(CC(=O)O)C1CCCCC1N(CC(=O)O)CC(=O)O (stereo not drawn) [CyDTA, trans-cyclohexanediaminetetraacetic acid]
rat, in vivo
  Cephalothin disappeared by absorption, Osmotic pressure (%) X 1: 8.1%
  Cephalothin disappeared by absorption, Osmotic pressure (%) X 2: 15.0%
  Cephalothin disappeared by absorption, Osmotic pressure (%) X 4: 32.3%

## O=S(=O)(O)c1cc(O)c(O)c(S(=O)(=O)O)c1 [DHBDS, 1,2-dihydroxybenzene-3,5-disulfonic acid]
rat, in vivo
  Cephalothin disappeared by absorption, Osmotic pressure X 1: 9.8 percents
  Cephalothin disappeared by absorption, Osmotic pressure X 4: 22.0 percents

## NCC(=O)O [DL-glycine]
[1]
  Cephalothin disappeared by absorption, Osmotic pressure X 4: 14.0 percents
[2]
  Cephalothin disappeared by absorption, Osmotic pressure X 1: 6.9 percents
Table 11, promoter 0.5% W/V, Example 10 repeated, two-fold tonic
  Cephalothin disappeared by absorption, Osmotic pressure X 2: 9.4 percents

## O=C(O)CN(CC(=O)O)CC(O)CN(CC(=O)O)CC(=O)O [DTPA-OH, diaminopropanoltetraacetic acid]
rat, in vivo
  Cephalothin disappeared by absorption, Osmotic pressure (%) X 1: 7.5%
  Cephalothin disappeared by absorption, Osmotic pressure (%) X 2: 13.7%
  Cephalothin disappeared by absorption, Osmotic pressure (%) X 4: 21.6%

## O=C(O)CN(CCN(CC(=O)O)CC(=O)O)CC(=O)O [EDTA.2Na, ethylenediaminetetraacetic acid]
[3]
  Cephalothin disappeared by absorption, Osmotic pressure (%) X 1: 9.4%

## O=P(O)(O)CN(CCN(CP(=O)(O)O)CP(=O)(O)O)CP(=O)(O)O [EDTPO, ethylenediaminetetrakis(methylenephosphonicacid)]
rat, in vivo
  Cephalothin disappeared by absorption, Osmotic pressure X 1: 7.6 percents
  Cephalothin disappeared by absorption, Osmotic pressure X 4: 20.0 percents

## CCC(C(=O)O)C(=O)O [Ethylmalonic acid, ethylmalonic acid]
rat, in vivo
  Cephalothin disappeared by absorption, Osmotic pressure (%) X 1: 12.3%
  Cephalothin disappeared by absorption, Osmotic pressure (%) X 2: 24.2%
  Cephalothin disappeared by absorption, Osmotic pressure (%) X 4: 36.9%

## O=P(O)(O)OC[C@H]1O[C@](O)(COP(=O)(O)O)[C@@H](O)[C@@H]1O [Fructose-1,6-diphosphoric acid]
rat, in vivo
  Cephalothin disappeared by absorption, Osmotic pressure X 1: 4.1 percents
  Cephalothin disappeared by absorption, Osmotic pressure X 2: 7.5 percents
  Cephalothin disappeared by absorption, Osmotic pressure X 4: 13.3 percents

## O=C[C@H](O)[C@@H](O)[C@@H](O)[C@H](O)C(=O)O [Galactronic acid, galacturonic acid]
rat, in vivo
  Cephalothin disappeared by absorption, Osmotic pressure X 1: 5.8 percents
  Cephalothin disappeared by absorption, Osmotic pressure X 2: 10.5 percents
  Cephalothin disappeared by absorption, Osmotic pressure X 4: 16.1 percents

## O=C[C@H](O)[C@@H](O)[C@H](O)[C@H](O)C(=O)O [Glucronic acid, glucuronic acid]
rat, in vivo
  Cephalothin disappeared by absorption, Osmotic pressure X 1: 5.5 percents
  Cephalothin disappeared by absorption, Osmotic pressure X 2: 11.1 percents
  Cephalothin disappeared by absorption, Osmotic pressure X 4: 16.4 percents

## O=C(O)CCCC(=O)O [Glutaric acid, glutaric acid]
[4]
  Cephalothin disappeared by absorption, Osmotic pressure (%) X 4: 15.2%
[3]
  Cephalothin disappeared by absorption, Osmotic pressure (%) X 1: 5.7%
Table 4, promoter 0.1% W/V, 0.1% W/V Cephalothin.Na, two-fold tonic, after one hour
  Cephalothin disappeared by absorption, Osmotic pressure (%) X 2: 9.3%

## O=C(O)CNCC(=O)O [Iminodiacetic acid, iminodiacetic acid]
rat, in vivo
  Cephalothin disappeared by absorption, Osmotic pressure (%) X 1: 7.1%
  Cephalothin disappeared by absorption, Osmotic pressure (%) X 2: 14.2%
  Cephalothin disappeared by absorption, Osmotic pressure (%) X 4: 17.0%

## CC(=O)CCC(=O)O [Levulinic acid, levulinic acid]
rat, in vivo
  Cephalothin disappeared by absorption, Osmotic pressure (%) X 1: 11.9%
  Cephalothin disappeared by absorption, Osmotic pressure (%) X 2: 21.1%
  Cephalothin disappeared by absorption, Osmotic pressure (%) X 4: 34.3%

## O=C(O)CC(O)C(=O)O (stereo not drawn) [Malic acid, malic acid]
Table 6, promoter 0.1 W/V %, 0.1 W/V % Cephalothin.Na, four-fold tonic, one hour
  Cephalothin disappeared by absorption, Osmotic pressure X 4: 18.8 percents
Table 6, promoter 0.1 W/V %, 0.1 W/V % Cephalothin.Na, isotonic, one hour
  Cephalothin disappeared by absorption, Osmotic pressure X 1: 7.2 percents
Table 6, promoter 0.1 W/V %, 0.1 W/V % Cephalothin.Na, two-fold tonic, one hour
  Cephalothin disappeared by absorption, Osmotic pressure X 2: 12.3 percents

## CN(C)[C@@H](Cc1ccccc1)C(=O)O [N--dimethylphenylalanine, N-dimethylphenylalanine]
rat, in vivo
  Cephalothin disappeared by absorption, Osmotic pressure X 1: 10.9 percents
  Cephalothin disappeared by absorption, Osmotic pressure X 4: 25.5 percents

## O=C(O)CNc1ccccc1 [N--phenylglycine, N-phenylglycine]
rat, in vivo
  Cephalothin disappeared by absorption, Osmotic pressure X 1: 12.0 percents
  Cephalothin disappeared by absorption, Osmotic pressure X 2: 22.3 percents
  Cephalothin disappeared by absorption, Osmotic pressure X 4: 30.8 percents

## O=C(O)CCCCCC(=O)O [Pimellic acid, pimellic acid]
rat, in vivo
  Cephalothin disappeared by absorption, Osmotic pressure (%) X 1: 5.1%
  Cephalothin disappeared by absorption, Osmotic pressure (%) X 2: 7.8%
  Cephalothin disappeared by absorption, Osmotic pressure (%) X 4: 15.0%

## O=CC(=O)[O-].[Na+] [Sodium glyoxalate, sodium glyoxalate]
Table 5, promoter 0.1% W/V, 0.1% W/V Cephalothin.Na, four-fold tonic, one hour
  Cephalothin disappeared by absorption, Osmotic pressure (%) X 4: 13.1%
Table 5, promoter 0.1% W/V, 0.1% W/V Cephalothin.Na, isotonic, one hour
  Cephalothin disappeared by absorption, Osmotic pressure (%) X 1: 4.9%

## O=C([O-])C(=O)C(=O)[O-].[Na+].[Na+] [Sodium ketomalonate, sodium ketomalonate]
rat, in vivo
  Cephalothin disappeared by absorption, Osmotic pressure (%) X 1: 8.4%
  Cephalothin disappeared by absorption, Osmotic pressure (%) X 2: 12.7%
  Cephalothin disappeared by absorption, Osmotic pressure (%) X 4: 19.6%

## O=C([O-])C(=O)[O-].[Na+].[Na+] [Sodium oxalate, sodium oxalate]
[4]
  Cephalothin disappeared by absorption, Osmotic pressure (%) X 4: 18.3%
[3]
  Cephalothin disappeared by absorption, Osmotic pressure (%) X 1: 6.6%

## O=C([O-])c1ccccc1C(=O)[O-].[Na+].[Na+] [Sodium phthalate, sodium phthalate]
rat, in vivo
  Cephalothin.Na disappeared by absorption, Osmotic pressure X 1: 7.1 percents
  Cephalothin.Na disappeared by absorption, Osmotic pressure X 4: 18.9 percents

## CC(=O)C(=O)[O-].[Na+] [Sodium pyruvate, sodium pyruvate]
rat, in vivo
  Cephalothin disappeared by absorption, Osmotic pressure (%) X 1: 7.0%
  Cephalothin disappeared by absorption, Osmotic pressure (%) X 2: 11.6%
  Cephalothin disappeared by absorption, Osmotic pressure (%) X 4: 23.1%
